Tests used:
[1] = test system: SW1783 (Low Grade Glioma); experiment: Bliss excess, mean over the matrix (fraction); higher = more synergy
Outline: (§1)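 Cell lines grown in DMEM/F12 or RPMI with 10% FBS were plated in 1536-well plates and held 24 hours at 37°C, 5% CO2 before 72 hours of exposure to two-drug dose matrices, with DMSO typically at 0.2%. CellTiter-Glo 2.0 luminescence gave viability, which was converted to inhibition. Vehicle wells were set to 0 and blank wells to 1. Combination Emax is the second-highest inhibition in the matrix, and Bliss excess is the observed combination effect minus the expected EA + EB − EA·EB, where EA and EB are the single-agent effects.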

[2] = test system: JiyoyeP-2003 (Burkitt's Lymphoma); experiment: as above
Outline: as §1

[3] = test system: LS-513 (Colorectal Carcinoma); experiment: as above
Outline: as §1

[4] = test system: TE-5 (Esophageal Squamous Cell Carcinoma); experiment: as above
Outline: as §1

[5] = test system: NALM-6 (B-Lymphoblastic Leukemia); experiment: as above
Outline: as §1

[6] = test system: DMS-273 (Small Cell Lung Carcinoma); experiment: as above
Outline: as §1

[7] = test system: IHH-4 (Thyroid Gland Carcinoma); experiment: as above
Outline: as §1

[8] = test system: SUIT-2 (Pancreatic Carcinoma); experiment: as above
Outline: as §1

[9] = test system: NCI-H1694 (Small Cell Lung Carcinoma); experiment: as above
Outline: as §1

NCI-H2369 (Mesothelioma) [10] = experiment: as above
Outline: as §1

[11] = test system: MDA-MB-157 (Breast Carcinoma); experiment: as above
Outline: as §1

[12] = test system: LS-513 (Colorectal Carcinoma); experiment: combination Emax (second highest fraction inhibited in the dose matrix, 72 h); higher = more inhibition; extreme values may be limits of the assay
Outline: as §1

[13] = test system: OCI-AML2 (Acute Myeloid Leukemia); experiment: as above
Outline: as §1

[14] = test system: NALM-6 (B-Lymphoblastic Leukemia); experiment: as above
Outline: as §1

[15] = test system: MFH-ino (Other Solid Carcinomas); experiment: as above
Outline: as §1

[16] = test system: SUIT-2 (Pancreatic Carcinoma); experiment: as above
Outline: as §1

[17] = test system: SW1088 (Low Grade Glioma); experiment: as above
Outline: as §1

NCI-H2595 (Mesothelioma) = experiment: as above
Outline: as §1

NCI-H2369 (Mesothelioma) [18] = experiment: as above
Outline: as §1

[19] = test system: U-266 (Plasma Cell Myeloma); experiment: as above
Outline: as §1
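For Bliss excess, mean over the matrix in this document: after 72 h of two-drug dosing.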

Row | Structure (SMILES) | Bliss excess [1] | Bliss excess [2] | Bliss excess [3] | Bliss excess [4] | Bliss excess [5] | Bliss excess [6] | Bliss excess [7] | Bliss excess [8] | Bliss excess [9] | Bliss excess (NCI-H2369 (Mesothelioma) [10]) | Bliss excess [11] | combination Emax [12] | combination Emax [13] | combination Emax [14] | combination Emax [15] | combination Emax [16] | combination Emax [17] | combination Emax (NCI-H2595 (Mesothelioma)) | combination Emax (NCI-H2369 (Mesothelioma) [18]) | combination Emax [19]
1 | C=CCn1c(=O)c2cnc(Nc3ccc(N4CCN(C)CC4)cc3)nc2n1-c1cccc(C(C)(C)O)n1 [AZD1775] + C[C@@H]1COCCN1C2=NC(=NC(=C2)C3(CC3)[S@](=N)(=O)C)C4=C5C=CNC5=NC=C4 [AZD6738] (first compound max 1 µM, partner max 10 µM) | -0.0432 | 0.046 | -0.0242 | -0.0843 | 0.0491 | 0.0645 | 0.0534 | -0.0287 | 0.0818 | -0.0395 | 0.0217 | 0.87 | 1 | 0.971 | 0.536 | 0.728 | 0.684 | 0.266 | 0.336 | 0.707
2 | C=CCn1c(=O)c2cnc(Nc3ccc(N4CCN(C)CC4)cc3)nc2n1-c1cccc(C(C)(C)O)n1 [AZD1775] + O=C(c1cc(Cc2n[nH]c(=O)c3ccccc23)ccc1F)N1CCN(C(=O)C2CC2)CC1 [Olaparib] (first compound max 1 µM, partner max 10 µM) | -0.0028 | -0.0086 | 0.0008 | -0.0488 | -0.0045 | -0.0334 | 0.0194 | -0.0049 | -0.036 | -0.084 | -0.0379 | 0.827 | 0.992 | 0.94 | 0.413 | 0.607 | 0.59 | 0.179 | 0.258 | 0.763
3 | CCN(CCO)CCCOc1ccc2c(Nc3cc(CC(=O)Nc4cccc(F)c4)[nH]n3)ncnc2c1 [AZD2811] + C=CCn1c(=O)c2cnc(Nc3ccc(N4CCN(C)CC4)cc3)nc2n1-c1cccc(C(C)(C)O)n1 [AZD1775] (first compound max 1 µM, partner max 1 µM) | -0.073 | 0.0548 | -0.0974 | -0.076 | -0.0515 | 0.0064 | 0.0451 | -0.017 | 0.0223 | -0.0434 | 0.0291 | 0.703 | 0.991 | 0.915 | 0.183 | 0.625 | 0.47 | 0.0802 | 0.151 | 0.605
4 | CCN(CCO)CCCOc1ccc2c(Nc3cc(CC(=O)Nc4cccc(F)c4)[nH]n3)ncnc2c1 [AZD2811] + C[C@@H]1COCCN1C2=NC(=NC(=C2)C3(CC3)[S@](=N)(=O)C)C4=C5C=CNC5=NC=C4 [AZD6738] (first compound max 1 µM, 7x7, partner max 10 µM) | -0.0501 | 0.0773 | -0.0524 | -0.0582 | -0.0435 | -0.0332 | -0.0583 | -0.0307 | -0.0073 | -0.0621 | 0.0031 | 0.746 | 0.984 | 0.957 | 0.529 | 0.575 | 0.566 | 0.21 | 0.178 | 0.426
5 | CCN(CCO)CCCOc1ccc2c(Nc3cc(CC(=O)Nc4cccc(F)c4)[nH]n3)ncnc2c1 [AZD2811] + O=C(c1cc(Cc2n[nH]c(=O)c3ccccc23)ccc1F)N1CCN(C(=O)C2CC2)CC1 [Olaparib] (first compound max 1 µM, 7x7, partner max 10 µM) | -0.0423 | 0.0809 | -0.0158 | -0.0181 | -0.0086 | -0.0044 | 0.0229 | -0.0254 | 0.0406 | 0.0055 | 0.032 | 0.404 | 0.873 | 0.873 | 0.338 | 0.0755 | 0.616 | 0.226 | 0.216 | 0.279
6 | CN(CCO)CC[C@H](CSc1ccccc1)Nc1ccc(S(=O)(=O)NC(=O)c2ccc(N3CCC([C@@H](O)c4ccccc4-c4ccc(Cl)cc4)CC3)cc2)cc1S(=O)(=O)C(F)(F)F [AZD4320] + C1CN(CCC1(C(=O)N[C@@H](CCO)C2=CC=C(C=C2)Cl)N)C3=NC=NC4=C3C=CN4 [Capivasertib] (first compound max 1 µM, 7x7, partner max 3 µM) | -0.119 | 0.0157 | -0.0728 | -0.0068 | 0.0091 | -0.0782 | -0.0253 | -0.054 | 0.0202 | 0.0332 | -0.0178 | 0.324 | 1 | 0.983 | 0.182 | 0.074 | 0.423 | 0.151 | 0.859 | 0.577

— the supplement of paper PMC11061612
